Experimental data as given in ChEMBL document CHEMBL1201862, “PubChem BioAssay data set” (2004).
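Exposure lasted 48 hours, with cells grown in 96-well plates and compounds tested at five concentrations. GI50 marks 50% less growth.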 Active and inactive are the calls of the source. No stated cut-off is given here; in the data, active = GI50 up to about 1.1 µM and inactive = higher.

Legend:
Assay in all cases: DTP human tumour cell line panel, 48 h
Malme-3M = system: Malme-3M
DLD-1 = system: DLD-1
SK-MEL-28 = system: SK-MEL-28
NCI-H226 = system: NCI-H226
COLO 205 = system: COLO 205
CCRF-CEM = system: CCRF-CEM
SR = system: SR
ACHN = system: ACHN
SN12C = system: SN12C
786-0 = system: 786-0
HCT-15 = system: HCT-15
A498 = system: A498
RPMI-8226 = system: RPMI-8226
HOP-62 = system: HOP-62
IGROV-1 = system: IGROV-1
HCT-116 = system: HCT-116
LXFL 529 = system: LXFL 529
NCI-H522 = system: NCI-H522
UACC-62 = system: UACC-62
SK-MEL-2 = system: SK-MEL-2
SNB-75 = system: SNB-75
SK-OV-3 = system: SK-OV-3
MOLT-4 = system: MOLT-4
M14 = system: M14
OVCAR-4 = system: OVCAR-4
SF-268 = system: SF-268
UO-31 = system: UO-31
DMS-114 = system: DMS-114
K562 = system: K562
SF-539 = system: SF-539
DMS-273 = system: DMS-273
NCI-H23 = system: NCI-H23
CAKI-1 = system: CAKI-1
HOP-92 = system: HOP-92
HCC 2998 = system: HCC 2998
HL-60 = system: HL-60
A549 = system: A549
LOX IMVI = system: LOX IMVI
BT-549 = system: BT-549
OVCAR-5 = system: OVCAR-5
MDA-MB-435 = system: MDA-MB-435
T47D = system: T47D
Hs-578T = system: Hs-578T
MDA-N = system: MDA-N
EKVX = system: EKVX
NCI/ADR-RES = system: NCI/ADR-RES
KM12 = system: KM12
MDA-MB-231 = system: MDA-MB-231
NCI-H460 = system: NCI-H460
TK-10 = system: TK-10
SF-295 = system: SF-295
HT-29 = system: HT-29
MCF7 = system: MCF7
SK-MEL-5 = system: SK-MEL-5
U-251 = system: U-251
DU-145 = system: DU-145
OVCAR-8 = system: OVCAR-8
SNB-19 = system: SNB-19
RXF 393 = system: RXF 393
OVCAR-3 = system: OVCAR-3
SW-620 = system: SW-620
PC-3 = system: PC-3
UACC-257 = system: UACC-257
M19-MEL = system: M19-MEL
KM-20L2 = system: KM-20L2

COc1cc([C@H]2Oc3cc(O)c4c(=O)cc(-c5ccccc5)oc4c3O[C@@H]2CO)ccc1O
GI50 (Malme-3M): 19 µM (inactive) | GI50 (DLD-1): 46.9 µM (inactive) | GI50 (SK-MEL-28): 28.6 µM (inactive) | GI50 (NCI-H226): 32.4 µM (inactive) | GI50 (COLO 205): 69.5 µM (inactive) | GI50 (CCRF-CEM): 65.6 µM (inactive) | GI50 (SR): 29.4 µM (inactive) | GI50 (ACHN): 20.3 µM (inactive) | GI50 (SN12C): 32.9 µM (inactive) | GI50 (786-0): 23.4 µM (inactive) | GI50 (HCT-15): 91.2 µM | GI50 (A498): 21.9 µM (inactive) | GI50 (RPMI-8226): 59.8 µM (inactive) | GI50 (HOP-62): 55.1 µM (inactive) | GI50 (IGROV-1): 34 µM (inactive) | GI50 (HCT-116): 30.1 µM (inactive) | GI50 (LXFL 529): 21.6 µM (inactive) | GI50 (NCI-H522): 19.3 µM (inactive) | GI50 (UACC-62): 25.1 µM (inactive) | GI50 (SK-MEL-2): 40.4 µM (inactive) | GI50 (SNB-75): 16.8 µM (inactive) | GI50 (SK-OV-3): 27.4 µM (inactive) | GI50 (MOLT-4): 46.5 µM (inactive) | GI50 (M14): 39 µM (inactive) | GI50 (OVCAR-4): 19.9 µM (inactive) | GI50 (SF-268): 15.6 µM (inactive) | GI50 (UO-31): 13.8 µM (inactive) | GI50 (DMS-114): 28 µM (inactive) | GI50 (K562): 48.4 µM (inactive) | GI50 (SF-539): 22.2 µM (inactive) | GI50 (DMS-273): 51.3 µM (inactive) | GI50 (NCI-H23): 22.5 µM (inactive) | GI50 (CAKI-1): 26.4 µM (inactive) | GI50 (HOP-92): 29.7 µM (inactive) | GI50 (HCC 2998): 58.5 µM (inactive) | GI50 (HL-60): 50.8 µM (inactive)

COc1ccccc1Nc1nc(N)nc(N)c1N
GI50 (A549): > 100 µM (inactive) | GI50 (Malme-3M): > 100 µM (inactive) | GI50 (SK-MEL-28): > 100 µM (inactive) | GI50 (NCI-H226): > 100 µM (inactive) | GI50 (COLO 205): 48.2 µM (inactive) | GI50 (CCRF-CEM): 27 µM (inactive) | GI50 (SR): 23.7 µM (inactive) | GI50 (ACHN): > 100 µM (inactive) | GI50 (LOX IMVI): 20.8 µM (inactive) | GI50 (BT-549): > 100 µM (inactive) | GI50 (OVCAR-5): > 100 µM (inactive) | GI50 (SN12C): 17.5 µM (inactive) | GI50 (MDA-MB-435): 27.5 µM (inactive) | GI50 (T47D): 58.5 µM (inactive) | GI50 (786-0): 33.4 µM (inactive) | GI50 (HCT-15): 62.1 µM | GI50 (Hs-578T): > 100 µM (inactive) | GI50 (MDA-N): 17.6 µM (inactive) | GI50 (A498): > 100 µM (inactive) | GI50 (RPMI-8226): 34.4 µM (inactive) | GI50 (HOP-62): > 100 µM (inactive) | GI50 (EKVX): > 100 µM (inactive) | GI50 (IGROV-1): 72.6 µM (inactive) | GI50 (NCI/ADR-RES): > 100 µM (inactive) | GI50 (KM12): > 100 µM (inactive) | GI50 (MDA-MB-231): 29.4 µM (inactive) | GI50 (HCT-116): 19 µM (inactive) | GI50 (NCI-H522): 18.1 µM (inactive) | GI50 (UACC-62): 57.5 µM (inactive) | GI50 (NCI-H460): 38.5 µM (inactive) | GI50 (TK-10): > 100 µM (inactive) | GI50 (SF-295): 28.6 µM (inactive) | GI50 (SK-MEL-2): > 100 µM (inactive) | GI50 (SNB-75): > 100 µM (inactive) | GI50 (SK-OV-3): > 100 µM (inactive) | GI50 (HT-29): 45.4 µM (inactive) | GI50 (MOLT-4): 14.7 µM (inactive) | GI50 (M14): > 100 µM (inactive) | GI50 (OVCAR-4): > 100 µM (inactive) | GI50 (MCF7): 29.2 µM (inactive) | GI50 (SF-268): 64.1 µM (inactive) | GI50 (UO-31): > 100 µM (inactive) | GI50 (K562): 45.1 µM (inactive) | GI50 (SK-MEL-5): 54.1 µM (inactive) | GI50 (SF-539): 50.6 µM (inactive) | GI50 (U-251): 64.3 µM (inactive) | GI50 (NCI-H23): 66.1 µM (inactive) | GI50 (CAKI-1): 58.7 µM (inactive) | GI50 (DU-145): > 100 µM (inactive) | GI50 (OVCAR-8): > 100 µM (inactive) | GI50 (SNB-19): > 100 µM (inactive) | GI50 (RXF 393): > 100 µM (inactive) | GI50 (HOP-92): > 100 µM (inactive) | GI50 (OVCAR-3): 43.9 µM (inactive) | GI50 (SW-620): 27.2 µM (inactive) | GI50 (HCC 2998): > 100 µM (inactive) | GI50 (HL-60): 29.1 µM (inactive) | GI50 (PC-3): 90.8 µM (inactive) | GI50 (UACC-257): 60.3 µM (inactive)

Nc1nc(Cl)c(N)c(NCC2(CO)CCC2)n1
GI50 (A549): > 100 µM (inactive) | GI50 (Malme-3M): > 100 µM (inactive) | GI50 (SK-MEL-28): > 100 µM (inactive) | GI50 (NCI-H226): > 100 µM (inactive) | GI50 (COLO 205): > 100 µM (inactive) | GI50 (CCRF-CEM): > 100 µM (inactive) | GI50 (SR): > 100 µM (inactive) | GI50 (ACHN): > 100 µM (inactive) | GI50 (LOX IMVI): > 100 µM (inactive) | GI50 (BT-549): > 100 µM (inactive) | GI50 (OVCAR-5): > 100 µM (inactive) | GI50 (SN12C): > 100 µM (inactive) | GI50 (MDA-MB-435): > 100 µM (inactive) | GI50 (T47D): 91.8 µM (inactive) | GI50 (786-0): > 100 µM (inactive) | GI50 (HCT-15): > 100 µM | GI50 (Hs-578T): > 100 µM (inactive) | GI50 (MDA-N): > 100 µM (inactive) | GI50 (A498): > 100 µM (inactive) | GI50 (RPMI-8226): > 100 µM (inactive) | GI50 (HOP-62): > 100 µM (inactive) | GI50 (EKVX): > 100 µM (inactive) | GI50 (IGROV-1): > 100 µM (inactive) | GI50 (NCI/ADR-RES): > 100 µM (inactive) | GI50 (KM12): > 100 µM (inactive) | GI50 (MDA-MB-231): > 100 µM (inactive) | GI50 (HCT-116): > 100 µM (inactive) | GI50 (NCI-H522): 69.7 µM (inactive) | GI50 (UACC-62): > 100 µM (inactive) | GI50 (NCI-H460): > 100 µM (inactive) | GI50 (TK-10): > 100 µM (inactive) | GI50 (SF-295): > 100 µM (inactive) | GI50 (SK-MEL-2): > 100 µM (inactive) | GI50 (SNB-75): > 100 µM (inactive) | GI50 (SK-OV-3): > 100 µM (inactive) | GI50 (HT-29): > 100 µM (inactive) | GI50 (MOLT-4): > 100 µM (inactive) | GI50 (M14): > 100 µM (inactive) | GI50 (OVCAR-4): > 100 µM (inactive) | GI50 (MCF7): > 100 µM (inactive) | GI50 (SF-268): > 100 µM (inactive) | GI50 (UO-31): > 100 µM (inactive) | GI50 (K562): > 100 µM (inactive) | GI50 (SK-MEL-5): 75.9 µM (inactive) | GI50 (SF-539): > 100 µM (inactive) | GI50 (U-251): > 100 µM (inactive) | GI50 (NCI-H23): 94.2 µM (inactive) | GI50 (CAKI-1): > 100 µM (inactive) | GI50 (DU-145): > 100 µM (inactive) | GI50 (OVCAR-8): > 100 µM (inactive) | GI50 (SNB-19): > 100 µM (inactive) | GI50 (RXF 393): > 100 µM (inactive) | GI50 (HOP-92): 76 µM (inactive) | GI50 (OVCAR-3): > 100 µM (inactive) | GI50 (SW-620): > 100 µM (inactive) | GI50 (HCC 2998): > 100 µM (inactive) | GI50 (HL-60): > 100 µM (inactive) | GI50 (PC-3): > 100 µM (inactive) | GI50 (UACC-257): > 100 µM (inactive)

COc1cc(C2c3cc4c(cc3[C@@H](NC3CCN(Cc5ccccc5)CC3)C3COC(=O)[C@H]23)OCO4)cc(OC)c1O (some centres not stated)
GI50 (A549): 0.0133 µM (active) | GI50 (DLD-1): 0.408 µM (active) | GI50 (SK-MEL-28): 0.627 µM (active) | GI50 (NCI-H226): 0.0137 µM (active) | GI50 (CCRF-CEM): 0.0251 µM (active) | GI50 (M19-MEL): 0.308 µM (active) | GI50 (OVCAR-5): 0.34 µM (active) | GI50 (HCT-15): 0.132 µM | GI50 (A498): 0.136 µM (active) | GI50 (HOP-62): 0.0282 µM (active) | GI50 (KM12): 0.33 µM (active) | GI50 (HCT-116): 0.195 µM (active) | GI50 (SF-295): 0.0311 µM (active) | GI50 (SK-OV-3): 0.0457 µM (active) | GI50 (HT-29): 0.243 µM (active) | GI50 (SF-268): 0.203 µM (active) | GI50 (SF-539): 0.0706 µM (active) | GI50 (OVCAR-8): 0.161 µM (active) | GI50 (SNB-19): 0.177 µM (active) | GI50 (OVCAR-3): 0.277 µM (active) | GI50 (HCC 2998): 0.274 µM (active) | GI50 (HL-60): 0.0189 µM (active) | GI50 (KM-20L2): 0.354 µM (active)
